Here are results for 3 molecules from article PMC9782245, “Synthesis and Structural Optimization of 2,7,9-Trisubstituted purin-8-ones as FLT3-ITD Inhibitors” (International Journal of Molecular Sciences, 2022).

The target of one test is T1, EphA1 (Homo sapiens, UniProt P21709).
T1 construct: purchased Eurofins Discovery (France)
T1 sequence (P21709 26-976): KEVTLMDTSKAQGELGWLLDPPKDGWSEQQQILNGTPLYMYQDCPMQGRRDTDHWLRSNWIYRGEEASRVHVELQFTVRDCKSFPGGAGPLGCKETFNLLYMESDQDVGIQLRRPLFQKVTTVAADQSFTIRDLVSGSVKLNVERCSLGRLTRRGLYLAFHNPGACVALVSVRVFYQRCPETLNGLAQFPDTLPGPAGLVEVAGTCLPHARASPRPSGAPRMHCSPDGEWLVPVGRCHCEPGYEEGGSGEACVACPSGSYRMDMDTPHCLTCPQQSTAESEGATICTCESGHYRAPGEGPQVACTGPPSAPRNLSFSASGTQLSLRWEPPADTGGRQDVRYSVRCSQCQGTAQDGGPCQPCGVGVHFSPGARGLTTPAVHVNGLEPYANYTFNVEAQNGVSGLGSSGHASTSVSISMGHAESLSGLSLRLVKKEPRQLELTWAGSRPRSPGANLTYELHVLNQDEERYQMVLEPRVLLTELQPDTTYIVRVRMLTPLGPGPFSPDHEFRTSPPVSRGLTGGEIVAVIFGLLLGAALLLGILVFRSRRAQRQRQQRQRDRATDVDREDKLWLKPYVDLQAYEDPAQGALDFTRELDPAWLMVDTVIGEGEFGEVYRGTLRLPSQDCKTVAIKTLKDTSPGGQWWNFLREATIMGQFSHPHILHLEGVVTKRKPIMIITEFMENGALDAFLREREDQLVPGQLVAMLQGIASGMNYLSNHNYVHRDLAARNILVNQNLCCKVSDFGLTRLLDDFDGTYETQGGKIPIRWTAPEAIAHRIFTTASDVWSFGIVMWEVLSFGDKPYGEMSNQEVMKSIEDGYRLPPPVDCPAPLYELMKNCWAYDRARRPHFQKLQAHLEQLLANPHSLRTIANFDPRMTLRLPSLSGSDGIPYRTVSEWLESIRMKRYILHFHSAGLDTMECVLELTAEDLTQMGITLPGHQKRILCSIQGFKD
The test can be described thus: Kinase selectivity panel at 1 µM (Eurofins), EphA1. The class given is biochemical. As to conditions: read-out: residual enzyme activity EphA1. Here is the method:
(§1) Three representative compounds (14d, 14e, and 15a) were profiled in a 1 µM concentration against 30 kinases that were selected as known off-targets of approved CDK4/6 inhibitors. […] Additional sensitive kinases include STK16, EphA1, MEKK2, SRC, and MER (≤10% of residual enzyme activities), which are not targets of the structurally similar CDK4/6 inhibitor, trilaciclib. We also screened compound 15a, an analogue of 14d, bearing isopropyl at position 7 of the purine instead of the methyl group. This change rapidly diminished the potency against CDK4 (dropped to 90% of residual enzyme activity), but the preference for FLT3 remained (1st rank) (Figure 2).
(§2) CDK/cyclin complexes and FLT3 kinases were assayed as previously described. Protein kinase selectivity was evaluated at a single concentration (1 µM) by screening against 30 enzymes at Eurofins Discovery (France).

A further test has as its target T2, MEKK2 (Homo sapiens, UniProt Q9Y2U5).
T2 construct: purchased Eurofins Discovery (France)
T2 sequence (Q9Y2U5 1-619): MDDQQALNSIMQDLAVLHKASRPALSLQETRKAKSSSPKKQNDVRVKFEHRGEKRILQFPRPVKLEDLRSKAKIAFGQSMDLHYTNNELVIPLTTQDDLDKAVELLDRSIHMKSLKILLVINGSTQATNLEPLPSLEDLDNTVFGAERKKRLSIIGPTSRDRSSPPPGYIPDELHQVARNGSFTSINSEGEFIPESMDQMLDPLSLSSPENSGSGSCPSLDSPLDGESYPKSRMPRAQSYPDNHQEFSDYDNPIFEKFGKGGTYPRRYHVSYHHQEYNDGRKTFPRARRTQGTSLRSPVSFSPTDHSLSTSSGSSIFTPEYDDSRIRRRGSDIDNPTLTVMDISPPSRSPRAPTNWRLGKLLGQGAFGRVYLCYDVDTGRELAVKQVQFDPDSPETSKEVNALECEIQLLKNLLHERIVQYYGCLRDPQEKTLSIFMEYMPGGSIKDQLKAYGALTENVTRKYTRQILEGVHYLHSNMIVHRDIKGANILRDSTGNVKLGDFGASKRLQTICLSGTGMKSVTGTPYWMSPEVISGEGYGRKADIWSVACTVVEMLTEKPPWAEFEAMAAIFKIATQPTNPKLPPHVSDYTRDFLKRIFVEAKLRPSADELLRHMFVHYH
The test can be described thus: Kinase selectivity panel at 1 µM (Eurofins), MEKK2. The class given is biochemical. As to conditions: read-out: residual enzyme activity MEKK2. Here is the method: as §1, §2

The next test has as its system K562 cells. Briefly: Flow cytometric cell cycle analysis, K562. In kind it is cell-based, Human. As to conditions: 24 h. Here is the method:
FLT3 inhibition causes G1-cell cycle arrest in FLT3-dependent cell lines such as MV4-11; we, therefore, performed flow cytometric analysis to evaluate cell cycle changes in MV4-11 and K562 cell lines treated with 200 nM compounds for 24 h. […] Specifically, 18 compounds arrested >85% of cells in the G1 phase, which is >30% cells in the G1 phase of the cell cycle than in control cells (Figure 4A).
Finally, we performed flow cytometric analysis with different concentrations of 15a in MV4-11 and MOLM13 (another FLT-ITD positive cell line) and K562 cell lines treated for 24 h (Figure 5).
Asynchronously growing cells were seeded into a 96-well plate and, after a preincubation period, treated with tested compounds for 24 h. The treated cells were stained directly (or after trypsinization for the adherent cells) with the 5× staining solution (17 mM trisodium citrate dihydrate, 0.5% IGEPAL CA-630, 7.5 mM spermine tetrahydrochloride, and 2.5 mM Tris; pH 7.6 containing […] propidium iodide). After the staining, DNA content was analyzed using flow cytometry using a 488 nm laser (BD FACS Verse with software BD FACSuite^TM, version 1.0.6). Cell cycle distribution was analyzed using ModFit LT (Verity Software House, version 5.0). Palbociclib, trilaciclib, and quizartinib were purchased from MedChemExpress, Monmouth Junction, NJ, USA.
Background: A flow cytometer gives signals particle by particle.

With `Cn1c(=O)n(C2CCCC2)c2nc(Nc3ccc(N4CCNCC4)cc3)ncc21` [14d], the remaining activity at 1 µM at EphA1 and on MEKK2 was no more than 10% in each case.

As for `Cn1c(=O)n(C2CCCCC2)c2nc(Nc3ccc(N4CCNCC4)cc3)ncc21` [14e], the remaining activity at 1 µM on EphA1 and at MEKK2 was no more than 10% each time. Further, the “effect on cell cycle (G1 arrest) in K562” value in the test on K562 cells (200 nM) is given as “moderate G1 block”.

In the case of `CC(C)n1c(=O)n(C2CCCC2)c2nc(Nc3ccc(N4CCNCC4)cc3)ncc21` [15a, 9-cyclopentyl-7-isopropyl-2-((4-(piperazin-1-yl)phenyl)amino)-7,9-dihydro-8H-purin-8-one], in the test on K562 cells (different concentrations), the “cell cycle changes in K562” value is “did not show any changes”.
